Data on four compounds can be found in patent US20030091555A1, “Bactericidal composition containing peptide and chelating agent” (NATIONAL AGRICULTURAL RESEARCH ORGANIZATION, priority 2001, published 2003).

Values after ≈ are worked out from the molar mass of the structure shown. Where only a bound is given, the exact number is not on record here.

The subject of one data set is E. coli. The note with it: high concentration (10 mM); cited from earlier work.
The next data set has as its system V. parahaemolyticus. The note with it: high concentration (10 mM); cited from earlier work.
For data set [1] the following is noted: as food additive; cited from earlier work.
The test system of data set [2] is Salmonella typhimurium JCM 6977. As to the kind of experiment: MIC/MBC by viable count after 1 day cultivation. It counts as cell-based. The following applies: for MBC: Salmonella enterica; for synergistic effects with thionin, compared with EDTA-2Na: with alpha-type thionin of wheat 10 μg/mL. The procedure: (§1) Bacillus cereus was inoculated into a sensitive measurement medium (manufactured by Nissui Pharmaceutical Co., Ltd., Tokyo, Japan), and other bacteria such as food poisoning bacteria were inoculated into an LB medium (1% polypeptone, 0.5% yeast extract, 0.5% sodium chloride, pH 7.2) and incubated at 37° C. for 1 day.
(§2) Then, after adding predetermined amounts of thionin and EDTA, the bacteria were inoculated so that the concentration of bacteria was about 1×10^6 cells/mL. After cultivating the bacteria for 1 day for other bacteria, the viable count was measured by a method of diluted plate culture. The concentration in which the viable count was decreased to 1/100 or less was defined as minimum bactericidal concentration (MBC) and the concentration in which the viable count was not increased was defined as minimum inhibitory concentration (MIC). The results obtained are shown in Tables 1, 2 and 3, as well as in FIG. 1.

The test system of data set [3] is Escherichia coli 06 JCM 5491. As to the kind of experiment: MIC/MBC by viable count after 1 day cultivation. It counts as cell-based. The following applies: for MBC: Escherichia coli; for synergistic effects with thionin, compared with EDTA-2Na: with alpha-type thionin of wheat 10 μg/mL. The procedure: as §1, §2
Data set [4] deals with test bacteria (food poisoning bacteria). As to the kind of experiment: MIC/MBC, text summary over the test bacteria. It counts as cell-based. The note with it: for MBC: added alone. The procedure:
as §1, §2

Data set [5] deals with Bacillus cereus IFO 15305. The data set can be described thus: MIC/MBC by viable count after 1 day cultivation. The following applies: sensitive measurement medium, 37° C. It counts as cell-based. The procedure:
as §1, §2

For data set [6], the system named is Escherichia coli 01:K1:H7 JCM 1649. As to the kind of experiment: MIC/MBC by viable count after 1 day cultivation. The following applies: LB medium, 37° C. It counts as cell-based. The procedure: as §1, §2
The subject of data set [7] is Salmonella enteritidis IFO 3313. As to the kind of experiment: MIC/MBC by viable count after 1 day cultivation. The note with it: LB medium, 37° C. It counts as cell-based. The procedure:
as §1, §2

The subject of data set [8] is Vibrio parahaemolyticus IFO 12711. As to the kind of experiment: MIC/MBC by viable count after 1 day cultivation. It counts as cell-based. The note with it: LB medium, 37° C. The procedure:
as §1, §2

The subject of a further data set is Bacillus cereus JCM 2152. The data set can be described thus: MIC/MBC by viable count after 1 day cultivation. It counts as cell-based. The following applies: sensitive measurement medium, 37° C. The procedure: as §1, §2
For a further data set, the target named is T1, trypsin (Bos taurus, UniProt P00760).
T1 construct: gene PRSS1
T1 sequence (P00760 24-246): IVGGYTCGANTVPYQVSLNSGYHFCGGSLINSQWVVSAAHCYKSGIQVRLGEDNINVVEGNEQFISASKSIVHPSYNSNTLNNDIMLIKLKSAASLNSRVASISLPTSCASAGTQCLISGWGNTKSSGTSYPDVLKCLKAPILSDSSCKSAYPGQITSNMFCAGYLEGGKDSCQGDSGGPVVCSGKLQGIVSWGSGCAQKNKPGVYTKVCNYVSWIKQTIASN
The following applies: cited from earlier work.

For another data set, the system named is guinea pig. The following applies: administered once with 103 to 229 mg/kg body weight, observed for 7 days; cited from earlier work.
The mark [9] stands for this setting: EDTA-2Na added alone, LB medium, 37° C., 1 day.
The mark [10] stands for this setting: thionin added alone, LB medium, 37° C., 1 day.

With `O=C(O)CN(CCN(CC(=O)O)CC(=O)O)CC(=O)O` [EDTA, ethylenediaminetetraacetic acid], the antibacterial activity result in the data set on E. coli and with V. parahaemolyticus was “shows antibacterial activity” throughout. The “ADI (Acceptable Daily Intake)” value in [1] is reported as 2.5 mg/kg body weight. For the same compound, the MBC in data set [2] (Thionin (10 μg/mL) +: with alpha-type thionin of wheat) came out at 0.0001 µM (≈ 0.0292 ng/mL); in data set [2] (Thionin (10 μg/mL) −: without alpha-type thionin of wheat) it was 0.005 µM (≈ 1.46 ng/mL); in [3] (JCM5491, Thionin (10 μg/mL) +: with alpha-type thionin of wheat) it was 0.001 µM (≈ 0.292 ng/mL); in data set [3] (JCM5491, Thionin (10 μg/mL) −: without alpha-type thionin of wheat), 0.005 µM (≈ 1.46 ng/mL). Also, the “synergistic effects with thionin, compared with EDTA-2Na” value in data set [2] and in data set [3] was “identical to or higher than that of EDTA-2Na” in each case.
Consider `O=C([O-])CN(CCN(CC(=O)[O-])CC(=O)O)CC(=O)O.[Na+].[Na+]` [EDTA-2Na, EDTA disodium], for which, in [4] (10 μg/mL alpha-type thionin of wheat added simultaneously, food poisoning bacteria), the “MBC of EDTA-2Na as compared with the addition of EDTA-2Na alone” value is “decreased”. The MBC was not below 10000 µM in data set [4] (Salmonella sp. and E. coli); not above 1000 µM in data set [4] (other bacteria (not Salmonella sp., E. coli)). Besides, the “MBC EDTA-2Na” value in data set [5] (EDTA-2Na added alone) was 200 µM; in data set [6] (EDTA-2Na added alone), 50000 µM; in data set [7] (EDTA-2Na added alone), 50< mM; in [2] (setting [9]) it was 20000 µM; in [8] (EDTA-2Na added alone), 1000 µM; against Bacillus cereus JCM 2152 (EDTA-2Na added alone), 500 µM. Besides, the “MBC EDTA-2Na” value in data set [3] (setting [9]) was found to be 10000 µM.
As to `O=C([O-])CN(CCN(CC(=O)[O-])CC(=O)[O-])CC(=O)[O-].[Na+].[Na+].[Na+].[Na+]` [EDTA-4Na, EDTA-tetrasodium salt], the “synergistic effects with thionin, compared with EDTA-2Na” value in data set [2] and in data set [3] was “identical to or higher than that of EDTA-2Na” each time.
Regarding thionin [reference compound], in the data set with trypsin, the “decomposition by a digestive enzyme” value is “rapid decomposition”. Further, in the data set with guinea pig, the abnormality after administration result is “no abnormality was observed”. The “MIC Thionin” value was 100< μg/mL in data set [5] (thionin added alone); 100< μg/mL in data set [6] (thionin added alone); 100< μg/mL in [7] (thionin added alone); 30 mg/L in [2] (setting [10]); 20 mg/L in data set [8] (thionin added alone); 100 mg/L against Bacillus cereus JCM 2152 (thionin added alone). For the same compound, the “MIC Thionin” value in data set [3] (setting [10]) worked out at 100 mg/L.
